Assay results as given in ChEMBL document CHEMBL3351757, “Design and synthesis of novel and highly-active pan-histone deacetylase (pan-HDAC) inhibitors” (Bioorg Med Chem, 2014).

Assays:
[1] = molecular target: T1, Histone deacetylase (Rattus norvegicus) (UniProt Q6P6W3+Q99P99+Q99P96+Q4QQW4+Q99P97+Q5RJZ2+B1WBY8); details: at 0.1 µM
Description: Inhibition of rat liver HDAC at 0.1 uM pre-incubated for 15 mins before Boc-Lys(Ac)-AMC substrate addition and measured after 30 mins by fluorometry

[2] = molecular target: T1, Histone deacetylase (Rattus norvegicus); details: at 10 µM
Description: Inhibition of rat liver HDAC at 10 uM pre-incubated for 15 mins before Boc-Lys(Ac)-AMC substrate addition and measured after 30 mins by fluorometry

[3] = molecular target: T2, Histone deacetylase 8 (Homo sapiens, UniProt Q9BY41); experiment: Inhibition of human HDAC8 pre-incubated for 30 mins before substrate addition and measured after 30 mins by HDAC-Glo I/II assay
T2 sequence (Q9BY41 whole entry): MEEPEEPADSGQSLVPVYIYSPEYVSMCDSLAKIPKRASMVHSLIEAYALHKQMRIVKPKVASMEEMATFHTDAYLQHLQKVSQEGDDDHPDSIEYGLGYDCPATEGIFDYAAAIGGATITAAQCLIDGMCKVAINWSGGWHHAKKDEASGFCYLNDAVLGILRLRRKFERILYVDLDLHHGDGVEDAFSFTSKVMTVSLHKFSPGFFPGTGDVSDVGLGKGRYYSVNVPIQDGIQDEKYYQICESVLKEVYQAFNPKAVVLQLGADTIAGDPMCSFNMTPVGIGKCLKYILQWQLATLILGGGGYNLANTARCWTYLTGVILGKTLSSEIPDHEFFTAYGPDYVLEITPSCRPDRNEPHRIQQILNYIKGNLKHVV

[4] = molecular target: Histone deacetylase 4 (Homo sapiens, UniProt P56524); experiment: Inhibition of human HDAC4 pre-incubated for 30 mins before substrate addition and measured after 30 mins by HDAC-Glo I/II assay
[5] = molecular target: Histone deacetylase 3 (Homo sapiens, UniProt O15379); experiment: Inhibition of human HDAC3 pre-incubated for 30 mins before substrate addition and measured after 30 mins by HDAC-Glo I/II assay
[6] = molecular target: Histone deacetylase 2 (Homo sapiens, UniProt Q92769); experiment: Inhibition of human HDAC2 pre-incubated for 30 mins before substrate addition and measured after 30 mins by HDAC-Glo I/II assay
[7] = molecular target: Histone deacetylase 9 (Homo sapiens, UniProt Q9UKV0); experiment: Inhibition of human HDAC9 pre-incubated for 30 mins before substrate addition and measured after 30 mins by HDAC-Glo I/II assay
[8] = molecular target: T3, Protein deacetylase HDAC6 (Homo sapiens, UniProt Q9UBN7); experiment: Inhibition of human HDAC6 pre-incubated for 30 mins before substrate addition and measured after 30 mins by HDAC-Glo I/II assay
T3 sequence (Q9UBN7 whole entry): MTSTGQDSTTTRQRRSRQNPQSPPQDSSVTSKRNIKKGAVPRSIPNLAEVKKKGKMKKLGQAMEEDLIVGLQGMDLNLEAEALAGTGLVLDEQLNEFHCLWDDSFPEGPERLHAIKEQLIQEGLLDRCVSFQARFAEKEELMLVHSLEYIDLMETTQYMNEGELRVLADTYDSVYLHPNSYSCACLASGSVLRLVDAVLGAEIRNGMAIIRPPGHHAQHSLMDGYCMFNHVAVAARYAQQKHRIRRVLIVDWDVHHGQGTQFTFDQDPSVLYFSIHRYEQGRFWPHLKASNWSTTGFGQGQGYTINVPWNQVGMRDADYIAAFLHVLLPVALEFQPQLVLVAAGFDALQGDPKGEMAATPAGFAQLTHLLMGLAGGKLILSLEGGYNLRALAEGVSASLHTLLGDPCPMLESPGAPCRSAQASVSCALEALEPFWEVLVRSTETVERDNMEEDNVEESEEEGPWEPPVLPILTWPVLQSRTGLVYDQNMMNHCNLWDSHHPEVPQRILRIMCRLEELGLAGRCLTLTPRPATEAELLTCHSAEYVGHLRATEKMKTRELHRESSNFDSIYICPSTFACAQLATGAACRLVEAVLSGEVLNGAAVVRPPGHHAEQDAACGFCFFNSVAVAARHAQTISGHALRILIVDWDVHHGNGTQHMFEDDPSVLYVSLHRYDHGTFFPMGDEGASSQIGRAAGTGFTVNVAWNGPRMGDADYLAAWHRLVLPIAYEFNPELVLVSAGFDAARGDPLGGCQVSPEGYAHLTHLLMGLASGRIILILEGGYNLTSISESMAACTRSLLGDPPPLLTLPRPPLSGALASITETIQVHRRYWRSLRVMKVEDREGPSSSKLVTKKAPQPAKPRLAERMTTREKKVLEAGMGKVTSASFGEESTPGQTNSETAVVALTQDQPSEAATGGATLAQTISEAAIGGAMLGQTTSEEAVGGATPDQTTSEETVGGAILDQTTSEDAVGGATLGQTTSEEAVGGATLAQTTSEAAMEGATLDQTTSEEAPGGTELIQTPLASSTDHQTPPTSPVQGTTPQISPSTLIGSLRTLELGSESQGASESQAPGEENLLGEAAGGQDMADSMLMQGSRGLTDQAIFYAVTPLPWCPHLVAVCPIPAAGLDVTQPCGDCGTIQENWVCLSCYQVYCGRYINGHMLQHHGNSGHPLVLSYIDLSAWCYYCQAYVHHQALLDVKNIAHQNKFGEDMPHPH

[9] = molecular target: Histone deacetylase 1 (Homo sapiens, UniProt Q13547); experiment: Inhibition of human HDAC1 pre-incubated for 30 mins before substrate addition and measured after 30 mins by HDAC-Glo I/II assay
Histone deacetylase 1, sequence (Q13547 whole entry): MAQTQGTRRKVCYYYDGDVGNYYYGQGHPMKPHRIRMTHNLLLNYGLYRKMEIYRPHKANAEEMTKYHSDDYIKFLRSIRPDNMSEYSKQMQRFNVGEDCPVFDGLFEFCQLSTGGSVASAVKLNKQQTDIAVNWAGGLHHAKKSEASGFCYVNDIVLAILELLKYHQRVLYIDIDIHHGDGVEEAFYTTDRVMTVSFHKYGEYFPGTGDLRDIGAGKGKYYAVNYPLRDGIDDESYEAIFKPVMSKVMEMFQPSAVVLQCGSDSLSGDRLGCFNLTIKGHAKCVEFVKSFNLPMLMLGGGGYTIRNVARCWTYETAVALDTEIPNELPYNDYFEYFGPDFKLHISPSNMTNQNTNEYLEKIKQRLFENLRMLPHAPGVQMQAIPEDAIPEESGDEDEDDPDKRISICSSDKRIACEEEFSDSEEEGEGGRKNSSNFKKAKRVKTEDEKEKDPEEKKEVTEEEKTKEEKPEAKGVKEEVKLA

Histone deacetylase 9, sequence (Q9UKV0 whole entry): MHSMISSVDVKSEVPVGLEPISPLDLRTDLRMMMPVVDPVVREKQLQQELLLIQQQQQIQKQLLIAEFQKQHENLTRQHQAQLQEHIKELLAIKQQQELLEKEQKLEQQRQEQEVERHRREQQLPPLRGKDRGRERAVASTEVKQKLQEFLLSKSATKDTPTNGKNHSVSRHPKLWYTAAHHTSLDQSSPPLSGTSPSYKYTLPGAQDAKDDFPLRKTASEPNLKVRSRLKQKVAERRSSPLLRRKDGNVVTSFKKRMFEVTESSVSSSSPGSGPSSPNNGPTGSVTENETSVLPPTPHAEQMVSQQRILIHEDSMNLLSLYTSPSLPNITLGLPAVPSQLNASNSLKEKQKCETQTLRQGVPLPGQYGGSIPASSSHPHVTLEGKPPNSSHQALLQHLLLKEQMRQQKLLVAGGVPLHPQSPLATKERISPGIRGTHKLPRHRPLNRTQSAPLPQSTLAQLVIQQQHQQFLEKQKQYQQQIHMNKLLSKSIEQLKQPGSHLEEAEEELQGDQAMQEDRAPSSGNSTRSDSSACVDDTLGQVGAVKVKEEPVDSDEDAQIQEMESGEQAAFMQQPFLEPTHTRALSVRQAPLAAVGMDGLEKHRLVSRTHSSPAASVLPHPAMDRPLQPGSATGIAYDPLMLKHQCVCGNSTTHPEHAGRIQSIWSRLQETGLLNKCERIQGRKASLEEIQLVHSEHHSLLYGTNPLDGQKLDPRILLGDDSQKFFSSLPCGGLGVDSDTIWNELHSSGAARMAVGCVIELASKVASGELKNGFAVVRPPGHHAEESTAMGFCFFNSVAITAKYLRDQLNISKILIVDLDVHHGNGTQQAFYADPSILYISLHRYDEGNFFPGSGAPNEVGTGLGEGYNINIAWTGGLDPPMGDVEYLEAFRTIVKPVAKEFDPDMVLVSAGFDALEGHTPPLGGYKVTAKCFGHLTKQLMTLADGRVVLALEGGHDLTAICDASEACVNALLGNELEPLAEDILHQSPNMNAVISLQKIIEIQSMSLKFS
Histone deacetylase 3, sequence (O15379 whole entry): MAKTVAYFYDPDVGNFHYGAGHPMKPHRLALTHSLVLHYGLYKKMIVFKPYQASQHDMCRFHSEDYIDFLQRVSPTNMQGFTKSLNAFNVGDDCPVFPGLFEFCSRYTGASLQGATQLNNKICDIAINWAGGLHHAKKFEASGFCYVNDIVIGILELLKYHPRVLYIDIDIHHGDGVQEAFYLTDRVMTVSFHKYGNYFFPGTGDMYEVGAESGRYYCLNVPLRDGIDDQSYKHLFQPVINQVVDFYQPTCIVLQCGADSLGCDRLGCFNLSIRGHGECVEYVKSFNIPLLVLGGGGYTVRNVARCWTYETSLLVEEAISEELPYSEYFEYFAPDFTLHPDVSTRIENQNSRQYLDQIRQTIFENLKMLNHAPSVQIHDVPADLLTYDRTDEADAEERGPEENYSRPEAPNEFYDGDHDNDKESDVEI
Histone deacetylase 2, sequence (Q92769 whole entry): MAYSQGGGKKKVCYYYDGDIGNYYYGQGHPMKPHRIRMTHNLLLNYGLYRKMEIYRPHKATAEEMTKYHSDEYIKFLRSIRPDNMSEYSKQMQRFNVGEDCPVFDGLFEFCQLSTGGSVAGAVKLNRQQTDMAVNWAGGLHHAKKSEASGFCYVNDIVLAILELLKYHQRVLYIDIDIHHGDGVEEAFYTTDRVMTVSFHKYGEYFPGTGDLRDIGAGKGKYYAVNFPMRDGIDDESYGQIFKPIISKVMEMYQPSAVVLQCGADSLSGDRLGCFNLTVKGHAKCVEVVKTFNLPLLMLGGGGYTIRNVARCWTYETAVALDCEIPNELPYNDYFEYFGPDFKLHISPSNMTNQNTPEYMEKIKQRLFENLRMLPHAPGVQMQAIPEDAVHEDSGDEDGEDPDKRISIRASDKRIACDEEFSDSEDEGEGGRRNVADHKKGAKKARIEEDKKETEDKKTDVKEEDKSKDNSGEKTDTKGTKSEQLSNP
Histone deacetylase 4, sequence (P56524 whole entry): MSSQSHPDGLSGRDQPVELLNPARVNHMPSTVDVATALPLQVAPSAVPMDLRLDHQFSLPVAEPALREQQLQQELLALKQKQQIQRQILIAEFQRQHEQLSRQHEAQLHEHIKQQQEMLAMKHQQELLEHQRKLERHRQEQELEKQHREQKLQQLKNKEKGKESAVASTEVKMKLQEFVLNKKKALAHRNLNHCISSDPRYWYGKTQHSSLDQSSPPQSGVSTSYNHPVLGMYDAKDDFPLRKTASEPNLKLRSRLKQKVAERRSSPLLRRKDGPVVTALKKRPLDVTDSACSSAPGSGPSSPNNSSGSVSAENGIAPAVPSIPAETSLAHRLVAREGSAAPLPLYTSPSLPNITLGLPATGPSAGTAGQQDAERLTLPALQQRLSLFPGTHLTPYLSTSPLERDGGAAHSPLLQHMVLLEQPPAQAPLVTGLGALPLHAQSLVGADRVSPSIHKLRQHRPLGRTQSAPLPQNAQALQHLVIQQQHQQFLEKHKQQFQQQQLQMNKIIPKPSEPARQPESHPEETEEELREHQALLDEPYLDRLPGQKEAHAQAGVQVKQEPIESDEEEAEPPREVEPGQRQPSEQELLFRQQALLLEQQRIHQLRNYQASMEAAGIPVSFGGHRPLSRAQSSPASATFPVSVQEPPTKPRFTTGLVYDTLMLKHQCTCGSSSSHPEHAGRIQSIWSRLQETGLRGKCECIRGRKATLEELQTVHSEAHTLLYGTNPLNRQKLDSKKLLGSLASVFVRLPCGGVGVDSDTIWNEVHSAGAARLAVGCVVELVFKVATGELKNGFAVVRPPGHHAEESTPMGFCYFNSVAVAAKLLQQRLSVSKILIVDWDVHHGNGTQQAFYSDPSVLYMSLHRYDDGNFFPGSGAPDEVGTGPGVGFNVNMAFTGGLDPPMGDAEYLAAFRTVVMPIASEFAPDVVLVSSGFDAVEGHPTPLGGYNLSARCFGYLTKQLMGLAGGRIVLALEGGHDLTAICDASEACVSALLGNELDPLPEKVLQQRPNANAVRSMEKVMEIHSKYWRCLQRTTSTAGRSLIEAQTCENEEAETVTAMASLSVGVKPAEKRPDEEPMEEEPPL

SMILES | inhibition [1] [%] | inhibition [2] [%] | IC50 [3] [nM] | IC50 [4] [nM] | IC50 [5] [nM] | IC50 [6] [nM] | IC50 [7] [nM] | IC50 [8] [nM] | IC50 [9] [nM]
O=C(CCCCCCC(=O)Nc1ccc2oc(=O)ccc2c1)NO | 46 | 98 | – | – | – | – | – | – | –
CC1(C)CC(=O)Nc2ccc(NC(=O)CCCCCCC(=O)NO)cc21 | 58 | 98 | 33 | 47 | 89 | 10 | 45 | 550 | 9.1
COc1ccc2cc(C(=O)NCCCCCCC(=O)NO)ccc2n1 | 70 | 100 | 80 | 78 | 28 | 170 | 34 | 40 | 52
CC1(C)CC(=O)Nc2ccc(C(=O)NCCCCCCC(=O)NO)cc21 | 44 | 98 | 55 | 63 | 69 | 93 | 39 | 92 | 30
O=C(CCCCCCC(=O)Nc1ccc2c(c1)CCC(=O)N2)NO | 51 | 98 | 94 | 120 | 91 | 18 | 25 | 630 | 14
CN1C(=O)CCc2cc(C(=O)NCCCCCCC(=O)NO)ccc21 | 51 | 99 | – | – | – | – | – | – | –
O=C(CCCCCCCC(=O)Nc1ccc2c(c1)CCC(=O)N2)NO | 30 | 97 | – | – | – | – | – | – | –
O=C(CCCCCOc1ccc2c(c1)CCC(=O)N2)NO | 13 | 91 | – | – | – | – | – | – | –
CC1(C)CC(=O)Nc2ccc(C(=O)NCc3ccc(/C=C/C(=O)NO)cc3)cc21 | 46 | 98 | 49 | 380 | 65 | 22 | 37 | 110 | 66
CC1(C)CC(=O)Nc2c(F)cc(C(=O)NCCCCCCC(=O)NO)cc21 | 57 | 99 | – | – | – | – | – | – | –
O=C(CCCCCOc1ccc2oc(=O)ccc2c1)NO | 12 | 91 | – | – | – | – | – | – | –
CC1(C)CC(=O)Nc2ccc(C(=O)NCc3cccc(/C=C/C(=O)NO)c3)cc21 | 22 | 95 | 200 | 2000 | 210 | 100 | 570 | 290 | 670
CC1(C)CC(=O)Nc2cc(C(=O)NCCCCCCC(=O)NO)ccc21 | 63 | 99 | – | – | – | – | – | – | –
CC1(C)CC(=O)Nc2ccc(C(=O)NC[C@H]3CC[C@H](/C=C/C(=O)NO)CC3)cc21 | 55 | 98 | 6 | 58 | 15 | 8.2 | 5.2 | 58 | 3.8
O=C(CCCCCOc1cccc2ccc(=O)[nH]c12)NO | 7 | 86 | – | – | – | – | – | – | –
O=C(CCCCCCCNC(=O)c1ccc2c(c1)CCC(=O)N2)NO | 40 | 98 | – | – | – | – | – | – | –
CC1(C)CC(=O)Nc2ccc(S(=O)(=O)NCCCCCCC(=O)NO)cc21 | 17 | 94 | – | – | – | – | – | – | –
O=C(CCCCCOc1ccc2c(c1)NC(=O)CC2)NO | 13 | 91 | – | – | – | – | – | – | –
O=C(CCCCCCNS(=O)(=O)c1ccc2c(c1)CCC(=O)N2)NO | 15 | 94 | – | – | – | – | – | – | –
O=C(CCCCCCNC(=O)c1ccc2[nH]c(=O)ccc2c1)NO | 68 | 100 | 73 | 280 | 180 | 25 | 46 | 280 | 24

SMILES | inhibition [1] [%] | inhibition [2] [%] | IC50 [3] [nM] | IC50 [4] [nM] | IC50 [5] [nM] | IC50 [6] [nM] | IC50 [7] [nM] | IC50 [8] [nM] | IC50 [9] [nM]
CC1(C)CC(=O)Nc2ccc(C(=O)NC[C@H]3CC[C@@H](CCC(=O)NO)CC3)cc21 | 27 | 97 | 24 | 330 | 87 | 25 | 50 | 530 | 41
O=C(CCCCCOc1cccc2c1NC(=O)CC2)NO | 4 | 80 | – | – | – | – | – | – | –
Cn1c(=O)ccc2cc(C(=O)NCCCCCCC(=O)NO)ccc21 | 63 | 99 | 72 | 86 | 98 | 90 | 41 | 86 | 89
CC1(C)CC(=O)Nc2c(F)cc(NC(=O)CCCCCCC(=O)NO)cc21 | 49 | 99 | – | – | – | – | – | – | –
O=C(CCCCCOc1ccc2[nH]c(=O)ccc2c1)NO | 19 | 94 | – | – | – | – | – | – | –
O=C(CCCCCCC(=O)Nc1ccc2[nH]c(=O)ccc2c1)NO | 66 | 99 | 48 | 63 | 54 | 45 | 58 | 66 | 35
O=C(CCCCCCNC(=O)c1ccc2c(c1)CCC(=O)N2)NO | 45 | 98 | 53 | 120 | 85 | 20 | 35 | 430 | 24
CCOC1=Nc2ccc(NC(=O)CCCCCCC(=O)NO)cc2C(C)(C)C1 | 42 | 97 | – | – | – | – | – | – | –
COC1=Nc2ccc(NC(=O)CCCCCCC(=O)NO)cc2C(C)(C)C1 | 52 | 99 | – | – | – | – | – | – | –
CC1(C)CC(=O)Nc2cc(C(=O)NCc3cccc(/C=C/C(=O)NO)c3)ccc21 | 27 | 96 | – | – | – | – | – | – | –
O=C(CCCCCNC(=O)c1ccc2c(c1)CCC(=O)N2)NO | 21 | 94 | – | – | – | – | – | – | –
O=C(CCCOc1ccc2c(c1)CCC(=O)N2)NO | 9 | 65 | – | – | – | – | – | – | –
CN1C(=O)CC(C)(C)c2cc(NC(=O)CCCCCCC(=O)NO)ccc21 | 55 | 98 | – | – | – | – | – | – | –
O=C(CCCCCC(=O)Nc1ccc2c(c1)CCC(=O)N2)NO | 24 | 95 | – | – | – | – | – | – | –
CC1(C)CC(=O)Nc2cc(OCCCCCC(=O)NO)ccc21 | 11 | 91 | – | – | – | – | – | – | –
O=C(CCCCCOc1ccc2ccc(=O)[nH]c2c1)NO | 21 | 93 | – | – | – | – | – | – | –
O=C(CCCCCCS(=O)(=O)Nc1ccc2c(c1)CCC(=O)N2)NO | 11 | 91 | – | – | – | – | – | – | –
CC1(C)CC(=O)Nc2ccc(OCCCCCC(=O)NO)cc21 | 11 | 88 | – | – | – | – | – | – | –
O=C(CCCCCCNS(=O)(=O)c1ccc2[nH]c(=O)ccc2c1)NO | 18 | 94 | – | – | – | – | – | – | –
O=C(CCCCCOc1cccc2c1CCC(=O)N2)NO | 7 | 86 | – | – | – | – | – | – | –
